Data on 2 sequences can be found in US6790951B1, “Expression system in microorganism and its use for expressing heterologous and homologous proteins” (priority 1995, dated 2004).

The test system of data set [1] is Lactobacillus plantarum C11. The experiment in a line: Induction of bacteriocin production / gene expression in Lactobacillus plantarum C11. In kind it is cell-based. How it is done: Experiments similar to the ones described in examples 1 and 2 were conducted with the bacteriocin producing strain Lactobacillus plantarum C11. These experiments yielded results that were essentially similar to the results described in examples 1 and 2. The sequence of the amphiphilic inducing peptide for the Lactobacillus plantarum C11 regulatory system is: […](26 residues) (SEQ. ID. NO: 1).
Observations essentially similar to the ones described by examples 1,2, and 4 have been made in relation to bacteriocin production by Lactobacillus plantarum C11. This strain produces a large number of bacteriocins, corresponding immunity proteins, and the 26-residue inducing peptide described in example 3. The corresponding genes have been cloned and sequenced. […] Promoter elements in front of the transcription start-points resemble those found in front of the genes involved in sakacin P production, as indicated in FIG. 4.
A 26-residue peptide (SEQ ID NO:1) with the sequence given in example 3 was synthesized.

The subject of data set [2] is genes involved in sakacin P production (FIG. 1) in Lactobacillus sake LTH673. The experiment in a line: Northern blotting of transcripts of the sakacin P genes in Bac- LTH673 cultures after adding the peptide. The note with it: purified or synthetic peptide. It is filed as cell-based. From the text: 5. In bacteriocin deficient cultures of LTH673, transcription of the genes depicted in FIG. 1 could not be detected (by Northern blotting).
In cultures of Lactobacillus sake LTH673 with the Bac^− phenotype, transcription of the genes depicted in FIG. 1 could not be detected at any stage during growth (by Northern blotting).

Data set [3] deals with Lactobacillus sake LTH673. The experiment in a line: Induction or maintenance of bacteriocin (sakacin P) production, inducing-peptide production and immunity in Lactobacillus sake LTH673 cultures. It is filed as cell-based. As to conditions: for induction of immunity to sakacin P / induction of production of the inducing peptide itself: added to Bac- Lactobacillus sake LTH673 cells; for induction of bacteriocin (sakacin P) production: added to Bac- Lactobacillus sake LTH673 cultures. From the text: This bacteriocin was later shown to be sakacin P (ref. 8). Bacterial cultures obtained by inoculating MRS medium (Difco Laboratories, Detroit, Mich., USA; or Oxoid ltd. Basingstoke, Hampshire, England) with material from this glycerol-stock produced sakacin P (Bac^+ phenotype) and, accordingly, were immune to purified sakacin P.
(§1) The Bac^+ phenotype of cells in this bacterial culture was lost upon diluting a Bac^+ LTH673 culture more than ˜2000-fold in fresh MRS-medium. […] Loss of the Bac^+ phenotype upon dilution or plating could be prevented by adding supernatant of an overnight Bac^+ LTH673 culture at an end concentration of minimally 0.05% (v/v). […] Colonies obtained after plating cells from a Bac^− culture in the presence of supernatant from a Bac^+ culture all were Bac^+.
As indicated above Bac^− colonies of Lactobacillus sake LTH673 were obtained after plating cells from a Bac^+ culture. […] Glycerol stocks of such Bac^− cultures were made and fresh cultures obtained after inoculating MRS medium with an inoculum from such a glycerol stock again were Bac^−. In all cases tested, the only way to restore bacteriocin production was to add supernatant of a Bac^+ culture that thus, apparently, contains an inducing substance.
Lb. sake LTH673 (Bac^+) is immune to purified sakacin P and to several related purified bacteriocins. Immunity is caused by a specific protein that is produced concomitantly with the bacteriocin. Accordingly, we observed that the loss and induction of the Bac^+ phenotype was invariably accompanied by, respectively, the loss and induction of immunity to sakacin P. Another trait invariably linked to changes in the Bac phenotype was the inducing capacity itself: this capacity was only present in supernatants of Bac^+ cultures but not in the supernatants of Bac^− cultures.

Data set [4] in a line: Stability of the inducing component of culture medium to proteinase K and boiling. In kind it is physicochemical.
From the text: as §1

Ends that are not written are not given here. Where only a bound is given, the exact number is not on record here.

With “KSSAYSLQMGATAIKQVKKLFKKWGW [26-residue inducing peptide]”, the “induction of gene expression (bacteriocin, immunity and inducing peptide genes)” value in data set [1] (Bac- cultures of Lactobacillus plantarum C11) was “gene expression can be induced”. Further, the “inducing effects of the synthetic peptide compared with Bac+ culture supernatants and the purified peptide” value in data set [1] (synthetic peptide, in Lactobacillus plantarum C11) is on record as “same inducing effects”.

Regarding “MAGNSSNFIHKIKQIFTHR [19-residue peptide, purified or chemically synthesized]”, in data set [2], the “detection of transcripts of the genes of FIG. 1” value is given as “several transcripts could be detected” and the “time until transcripts could be detected after adding the peptide” value was at most 30 min. Moreover, in data set [3], the “induction of immunity to sakacin P” value was “restored”, the “induction of production of the inducing peptide itself” value was “restored” and the “induction of bacteriocin (sakacin P) production” value is on record as “restored”. In data set [3] (listed as purified peptide), the “induction of immunity to sakacin P” value is recorded as “resulted in the induction”, the “induction of production of the inducing peptide itself” value was “resulted in the induction” and the “induction of bacteriocin (sakacin P) production” value is “resulted in the induction”. Further, the “inducing effects of the synthetic peptide compared with Bac+ culture supernatants and the purified peptide” value in data set [3] (synthetic peptide, in Lactobacillus sake LTH673) was “same inducing effects”. The “inducing activity after boiling” value in data set [4] (boiling for 10 minutes) is given as “not after boiling”. Besides, the “inducing activity after proteinase K treatment” value in data set [4] (culture medium treated with proteinase K) is “lost”.
